Reference: patent US20080234232A1, “Methods and compositions for targeting AFAP” (priority 2007, published 2008)

Tests used:
[1] = system: AFAP-110 colocalization with cSrc and cSrc activation; assay: Immunofluorescence: PMA-induced colocalization of AFAP-110 with cSrc and cSrc activation in mouse embryo fibroblasts; assay type: cell-based
Method: FIG. 1: LY294002 blocks PMA-induced colocalization between AFAP-110 and cSrc, and subsequent cSrc activation. A) SYF cells transiently co-expressing GFP-AFAP-110 and cSrc were untreated (panels a-d), treated with 100 nM PMA for 15 minutes (panels e-h), or treated with PMA and either 6 μM bisindolylmaleimide (panels i-I), 10 μM LY294002 (panels m-p) or 50 nM Wortmannin (panels q-t). Fixed cells were immunolabeled with avian specific cSrc antibody, EC10 (1:500), and phospho-Src-family (Tyr416) (1:250) as described in the methods section. Secondary antibodies used were Atexa 546 anti-mouse for EC10 and Alexa 647 anti-rabbit for phospho-Src-family (Tyr416). A merged image was generated to determine colocalization between AFAP-110 and cSrc. Bars represent 20 μM.
D) Knockout MEFs (p85−/−) were transfected with GFP-AFAP-110 and cSrc. Fixed cells were immunolabeled with EC10 (1:500) and phospho-Src-family (Tyr416) (1:250) as described in the methods section. Secondary antibodies used were Alexa 546 anti-mouse for EC10 and Alexa 647 anti-rabbit for phospho-Src-family (Tyr416). Cells treated with 100 riM PMA for 15 minutes (panels e-h). Images were merged to determine colocalization of cSrc and GFP-AFAP-110. Bars represent 20 μm. Mouse embryo fibroblast cells that express the p85α isoform of the PI3K regulatory subunit (p85α+/+) were transfected with GFP-AFAP-110 and cSrc. Fixed cells were immunolabeled with EC10 (1:500) and phospho-Src-family (Tyr416) (1:250) as described in the methods section. Secondary antibodies used were Alexa 546 anti-mouse for EC10 and Alexa 647 anti-rabbit for phospho-Src-family (Tyr416). Images were merged to determine colocalization of cSrc and GFP-AFAP-110. Bars represent 20 μm.
SYF, SYF/cSrc, p85α+/+ and p85−/− cells were cultured in standard culture media. Transient transfections of SYF, SYF/cSrc, p85α+/+ cells for immunofluorescence were carried out using LipofectAMINE™ Reagent (Invitrogen) as per manufacturer's protocol. Briefly, Approximately 5.0-8.0×10^4 cells per well were transfected at 50-70% confluent on coverstips with 2-4 μg of plasmid DNA and incubated for 3-4 hours. Thirty-six hours after transfection, cells were serum starved for 12 hours, treated, and subsequently fixed and permeablized as previously described (Qian, Y. et. al., 1998). Cells were treated with a PKC activator, 100 nM PMA for 5 or 15 minutes or in combination with the following pretreatments; a PKC inhibitor, 6 μM bisindolylmaleimide [I] for six hours; or PI3K inhibitor, 10 μM LY294002 for six hours; 50 nM Wortmannin for 30 minutes; and/or a Src family inhibitor, 5 μM PP1 for six hours. For actin labeling, a 1:500 dilution of TRITC-phalloidin was used as labeled in the figures. Primary antibody concentrations used were diluted in 5% Bovine Serum Albumin (BSA) dissolved in 1× phosphate-buffered saline (PBS): EC10 mAb-1:500; Phospho-Src Family (Y416) pAb-1:250; Anti-PI-3,4,5-P3 mAb-1:100; Anti-AFAP-110 (F1)pAb-1:1000; Anti-cSrc pAb-1:500; Anti-flag-1:1000. All fluorescent secondary and phalloidin antibodies were diluted 1:200 in 5% BSA, and are labeled according to figure legends. Cells were washed and mounted on slides with Fluoromount-G (Fisher). A Zeiss LSM 510 confocal microscope was used to scan images of about 1 μM in thickness. To prevent cross-contamination between the different fluorochromes, each channel was imaged sequentially using the multitrack recording module before merging the images. For all figures, representative cells are shown (>100 cells examined per image shown).
We utilized SYF cell lines as a model system, mouse embryo fibroblasts engineered to contain null mutations in the c-src,fyn, and c-yes genes (Klinghoffer, R. A. et. al., 1999). The cells were transiently co-transfected with constructs that encode cSrc and GFP-tagged AFAP-110, as previously described (Gatesman, A. et. al., 2004). […]

cSrc = assay: Western blot of phospho-Src family (Y416) after PMA treatment; assay type: cell-based, mouse; settings: 100 nM PMA 15 min
Method: E) SYF, SYF/cSrc, and p85−/− were treated with 100 nM PMA for 15 minutes, 40 μg cell lysate resolved by SDS-PAGE and western blot analysis performed to evaluate phospho-Src family (Y416)(1:1000) and cSrc (1:500) as described in the methods section. Beta-actin (1:5000) was used as a loading control.
All cells were cultured to 70-80% confluence, serum-starved for 16 hours, and treated as described above. The cells were lysed and western analysis performed as previously described (Guappone, A. C. et. al., 1997). Membranes were probed using the following antibodies diluted in 1× Tris-buffered saline plus 0.1% Tween-20 (TBS-T) containing 5% nonfat milk, except were indicated: 1:10000 AFAP-110 pAb (F1), 1:1000 Phospho-Src family Tyrosine 416 (Cell Signal) in 5% BSA, 1:500 cSrc (clone N-16: Santa Cruz Biotechnology), 1:1000 p85α (BD Biosciences), 1:1000 p110α (BD Biosciences), 1:1000 PKCα (BD Biosciences), and 1:5000 β-actin in 1% BSA (Sigma).

PI3K = assay: Surrogate markers for PI3K activation in the MEF cell system; assay type: cell-based, mouse; settings: PMA treatment
[2] = p85−/− cells, 100 nM PMA 15 min

In the case of `CCCCCCCCCCCCCC(=O)O[C@@H]1[C@@H](C)[C@@]2(O)[C@@H](C=C(CO)C[C@]3(O)C(=O)C(C)=C[C@@H]23)[C@@H]2C(C)(C)[C@]12OC(C)=O` [PMA, Phorbol 12-myristate 13-acetate], the “activation of cSrc (anti-phospho-cSrc Y416 immunoreactivity) on PMA treatment” value ([1]; SYF cells, 100 nM PMA 15 min) is reported as “evidence for activation of cSrc”, the “colocalization of GFP-AFAP-110 with cSrc on PMA treatment” value ([1]; SYF cells, 100 nM PMA 15 min) is reported as “caused GFP-AFAP-110 to colocalize with cSrc” and the “cSrc activation on PMA treatment” value ([1]; p85α+/+ cells) is reported as “enables PMA to induce”. The “colocalization of AFAP-110 with cSrc on PMA treatment” value ([1]; p85α+/+ cells) was “enables PMA to induce”, the “cSrc activation on PMA treatment” value [1, 2] was “no evidence for cSrc activation” and the “colocalization of AFAP-110 with cSrc on PMA treatment” value [1, 2] was “failed to induce significant colocalization”. The “tyrosine416 phosphorylation of cSrc” value (cSrc; SYF/cSrc cells) was “induced”, the “cSrc activation (western blot)” value (cSrc; mouse embryo fibroblasts lacking the p85 regulatory subunit) was “failed to induce” and the “Akt phosphorylation on serine 473” value (PI3K) was “could induce an increase”. For the same compound, the “stabilization of HIF-1α” value (PI3K) was “could induce”.
